Values quoted from earlier work, collected in patent publication US9192159B2, “Azoxystrobin formulations” (priority 2006, dated 2015).

SMILES: CO/C=C(/C(=O)OC)c1ccccc1Oc1cc(Oc2ccccc2C#N)ncn1 [Azoxystrobin]
- Solubility in water: low solubility in water
